Measurements reported in patent US7160867B2 (Isotechnika, Inc., priority 2003, dated 2007).
“Also recorded” adds a separate entry of the source.

Key:
[1] = Stability toward hydrolysis in acidic media; assay type: physicochemical; settings: 70/30 methanol/0.1N HCl (pH 1.5); free rapamycin by HPLC at 1 hour
[2] = Hydrolysis of rapamycin carbohydrate derivatives in human whole blood; assay type: in vitro ADME; settings: spiked in human whole blood; free rapamycin by HPLC at 1 hour
[3] = system: primary blood lymphocyte cultures (PBMC); assay: In vitro immunosuppressive activity, PBMC proliferation (alamar blue); assay type: cell-based; settings: 3-day culturing, FIG. 5
[4] = Pharmacokinetic profiles in rats after oral dosing (rapamycin in whole blood by LC/MS); assay type: in vivo, Sprague Dawley rats; settings: 2.5 or 10 mg/kg
Description: The pharmacokinetic profiles in rats of selected rapamycin carbohydrate derivatives were determined to investigate the ability of the derivatives to deliver free rapamycin into the bloodstream in vivo. […] Whole blood was extracted via jugular bleed over 24 hours and frozen at −20° C. until analysis. Whole blood was analyzed by Liquid Chromatography Mass Spectrometry for the presence of rapamycin.

Sprague-Dawley rats = assay: Serum cholesterol levels in rats; assay type: in vivo; settings: 2.5 mg/kg/day for 12 days
Description: Cholesterol levels were measured at the 24-hour trough level on day 11.

[5] = system: heterotopic heart allografts; assay: Graft survival of heterotopic heart allografts in rats; assay type: in vivo, Wistar Furth rats to Lewis rats
Description: If graft dysfunction was noted during the 30-day post-transplantation period, the animal was sacrificed. If the animal survived longer than 30 days post-transplantation, the test and control articles were discontinued and the animal was allowed to continue until graft dysfunction or up to 100 days post-transplantation.

washed human platelets = assay: Washed human platelet aggregation assay; settings: 25 μg/ml, 2 μM ADP, after 8 minutes, FIG. 11
Beagle dogs = assay: Gastrointestinal tolerability in beagle dogs
[6] = in plasma and in low and neutral pH buffers at 37° C.; cited from earlier work
[7] = [14C]-rapamycin, healthy male volunteers; cited from earlier work
[8] = 2.5 mg/kg/day oral gavage, day -3 to day 30, N = 6 (derivative n = 5)

| SMILES | Extent of Hydrolysis (%) [1] [%] | Extent of Hydrolysis (%) [2] [%] | cell proliferation inhibition / immunosuppressive activity [3] | time to maximum concentration of rapamycin in blood ([4]; FIG. 6) | serum cholesterol level relative to vehicle control group (Sprague-Dawley rats; 24-hour trough on day 11, FIG. 9) | serum cholesterol level relative to rapamycin group (Sprague-Dawley rats; 24-hour trough on day 11, p<0.01, FIG. 9) | prolonged survival of the graft over the vehicle control ([5]; 2.5 mg/kg/day) [%] | Average Survival Time (days post-transplant) Mean ± SEM [5, 8] [days post-transplant] | prolonged survival of the graft over the vehicle control ([5]; 10 mg/kg/day) [%] | Average Survival Time (days post-transplant) Mean ± SEM ([5]; 10 mg/kg/day oral gavage, day -3 to day 30, N = 6) [days post-transplant] | platelet aggregation (washed human platelets) | Observations (Beagle dogs; beagle dog 4, oral dose 1 mg/kg, rapamycin given one week after the derivative, 1 mg/kg) | Observations (Beagle dogs; beagle dog 4, oral dose 1 mg/kg, rapamycin given one week after the derivative, listed as 42-O-(D-fructosylcarbonyl)rapamycin, 1 mg/kg) | Observations (Beagle dogs; beagle dogs, single oral dose 10 mg/kg, 10 mg/kg) | Observations (Beagle dogs; beagle dogs, single oral dose 10 mg/kg, listed as 42-O-(D-fructosylcarbonyl)rapamycin, 10 mg/kg) | time to maximum concentration of rapamycin in blood ([4]; FIGS. 6 and 7) | half-life of degradation [6] | share of the total radioactivity in blood [7] |
| --- | --- | --- | --- | --- | --- | --- | --- | --- | --- | --- | --- | --- | --- | --- | --- | --- | --- | --- |
| CO[C@H]1C[C@@H]2CC[C@@H](C)[C@@](O)(O2)C(=O)C(=O)N2CCCC[C@H]2C(=O)O[C@H]([C@H](C)C[C@@H]2CC[C@@H](O)[C@H](OC)C2)CC(=O)[C@H](C)/C=C(\C)[C@@H](OC(=O)OCC2(O)OC[C@@H](O)[C@@H](O)[C@@H]2O)[C@@H](OC)C(=O)[C@H](C)C[C@H](C)/C=C/C=C/C=C/1C (stereo partly drawn) [31-O-(D-Fructosylcarbonyl)rapamycin] | <1 | 23 ± 0.5 |  |  |  |  |  |  |  |  |  |  |  |  |  |  |  |  |
| CO[C@H]1C[C@@H]2CC[C@@H](C)[C@@](O)(O2)C(=O)C(=O)N2CCCC[C@H]2C(=O)O[C@H]([C@H](C)C[C@@H]2CC[C@@H](OC(=O)OCC3(O)OC[C@@H](O)[C@@H](O)[C@@H]3O)[C@H](OC)C2)CC(=O)[C@H](C)/C=C(\C)[C@@H](O)[C@@H](OC)C(=O)[C@H](C)C[C@H](C)/C=C/C=C/C=C/1C (stereo partly drawn) [42-O-(D-Fructosylcarbonyl)rapamycin] | <1 | 28 ± 2 | equivalent to rapamycin | approximately 3 hours | not significantly different | significantly lower | 214 | 41 ± 4 | 341 | 57 ± 4 | does not exhibit a measurable effect | Lethargic; also recorded: Recovered | slight lethargy | Normal | no overt physical changes |  |  |  |
| CO[C@H]1C[C@@H]2CC[C@@H](C)[C@@](O)(O2)C(=O)C(=O)N2CCCC[C@H]2C(=O)O[C@H]([C@H](C)C[C@@H]2CC[C@@H](O)[C@H](OC)C2)CC(=O)[C@H](C)/C=C(\C)[C@@H](O)[C@@H](OC)C(=O)[C@H](C)C[C@H](C)/C=C/C=C/C=C/1C [Rapamycin] |  |  |  |  |  |  |  | 39 ± 4 |  |  |  |  |  |  |  | approximately 30 minutes | less than 10 hours | approximately 35% |
